The results in this text go back to patent US20100075893A1, “PREPARATION OF A PHARMACEUTICAL COMPOSITION FOR INCREASING BONE MINERAL DENSITY” (priority 2008, published 2010).

Positions of bridges follow the written chain, without caps; N, C: chain ends. No end group written: not given here.

One experiment concerns bovine granulosa cells. The experiment is described as follows: CART induced suppression of FSH-induced 17β-estradiol production in bovine granulosa cells. In kind it is cell-based. The following applies: 1 μM CART peptide, 7 days culture. The protocol: Ovaries from double muscled cows were obtained at a local abattoir and granulosa cells were collected from 3- to 5-mm follicles at random stages of the estrus cycle. Follicles were placed in culture medium (M505 medium (Gibco Invitrogen, Carlsbad, Calif., USA) supplemented with antibiotics (100 IU/ml penicillin and 0.1 mg/ml streptomycin (Invitrogen, Carlsbad, Calif., USA), 10 ng/mL insulin (Schering-Plough, Oss, The Netherlands), 4 ng/mL sodium selenite (Sigma Aldrich, St. Louis, Mo., USA), 5 μg/mL apo-transferrin (Sigma Aldrich, St. Louis, Mo., USA) and 10^−7M androstenedione (Org 6, Schering-Plough, Oss, The Netherlands)) at 37° C. Follicles were ruptured with a needle and the cells were passed through a cell strainer (70 μm nylon, Becton Dickinson, Bedford, USA). Cells were centrifuged for 10 min at 340×g and resuspended in culture medium. Cells (1×10^5 viable cells/well) were cultured in 96 wells plate for 7 days at 37° C. in a humidified atmosphere (5% CO2, 95% air) in the presence of 0, 20, 100 or 300 mUnits FSH (Org 32489, Schering-Plough, Oss, The Netherlands) in combination with […], 10^−7, […], 10^−9, 10^−10, 10^−11 or 10^−12M rat CART 55-102 (Phoenix Pharmaceuticals Inc., Belmont, Calif., USA). […] After 7 days 17β-estradiol levels were determined in the culture medium using a 17β-estradiol ELISA (Diagnostic Systems Laboratories Inc., Marburg, Germany).

Experiment [1] has as its system C57B1/6J females. The experiment is described as follows: CART slow release formulation vs. daily CART injections, bone mineral density in mice (in vivo micro-CT, distal femur). The following applies: daily s.c. injections of 2 μg in 0.9% NaCl, 30 days. The protocol:
In this experiment the effectiveness of CART peptide to improve bone mineral density via a slow release formulation was compared with daily injections of CART. The experiment was conducted in 12 weeks old C57B1/6J females and consisted of four experimental groups (n=5 per group). In the first group of mice 2 placebo slow release pellets (SX-999, 60 day pellets, Innovative Research of America, Sarasota, Fla.) were implanted subcutaneously in the neck. In the second group 2 SX-999 slow release pellets containing 50 μg rat CART55-102 (Phoenix Pharmaceuticals, Inc. Belmont, Calif.) each, were implanted subcutaneously in the neck. The other two groups received daily s.c. injections with either vehicle (0.9% NaCl) or with 2 μg rat CART55-102 peptide in 0.9% NaCl. Mice were sedated with injection anaesthetics (Hypnorm (VetaPharma, Leeds, UK)/Dormicum (Roche, Mijdrecht, The Netherlands)) and bone density was determined in the distal femur by an in vivo micro-CT measurement (Skyscan1076 micro CT scanner, Skyscan, Belgium) at T=0 and at T=30 days. Blood was collected weekly by orbita puncture to determine serum CART levels. BMD (g/cm^3) was expressed as mean±SD of the individual data. Statistical analysis was performed using the Student T-test (two-tailed). P<0.05 was considered as significant.

The test system of experiment [2] is C57B1/6J females. The experiment is described as follows: Bone mineral density increase in mice by slow release CART treatment (in vivo micro-CT, distal femur). The protocol:
In this experiment mice were treated with 3 different concentrations of CART peptide. The experiment was conducted in 12 weeks old C57B1/6J females and consisted of four experimental groups (n=5 per group). The first group of mice received placebo slow release pellets (SX-999, 60 day slow release pellets, Innovative Research of America, Sarasota, Fla.). The other three groups were treated with SX-999 slow release pellets containing either 20 μg, 50 μg or 100 μg (2×50 μg) rat CART 55-102 peptide (rCART) (Phoenix Pharmaceuticals, Inc. Belmont, Calif.). Mice were sedated with injection anaesthetics (Hypnorm (VetaPharma, Leeds, UK)/Dormicum (Roche, Mijdrecht, The Netherlands)) and the pellets were implanted subcutaneously in the neck. Bone architecture and density was determined at the distal femur at T=0 by an in vivo micro-CT measurement (Skyscan1076 micro-CT scanner, Skyscan, Kontich, Belgium). Scans were performed at 9 μm resolution. Trabecular bone analysis was performed on a 2 mm slice 150 μm proximal to the distal growth plate of the femur. In vivo micro-CT measurements were repeated at day 28 and day 60. The BMD value of the placebo group at T=0, T=28 and T=60 days was set at 100% and the BMD values of the 20 μg, 50 μg and 100 μg (2×50 μg) CART treated groups were calculated relatively to the placebo group. Values are expressed as mean±SD of the individual data. For statistical analysis the treatment groups were compared with the placebo group of the corresponding time point in a standard Student T-test (two-tailed). P<0.05 was considered as significant.

“Ile-Pro-Ile-Tyr-Glu-Lys-Lys-Tyr-Gly-Gln-Val-Pro-Met-Cys-Asp-Ala-Gly-Glu-Gln-Cys-Ala-Val-Arg-Lys-Gly-Ala-Arg-Ile-Gly-Lys-Leu-Cys-Asp-Cys-Pro-Arg-Gly-Thr-Ser-Cys-Asn-Ser-Phe-Leu-Leu-Lys-Cys-Leu (IPIYEKKYGQVPMCDAGEQCAVRKGARIGKLCDCPRGTSCNSFLLKCL; disulfide 14-32, 20-40, 34-47; ends not checked) [rat CART 55-102, rat CART 55-102 peptide (rCART) (Phoenix Pharmaceuticals, Inc.)]”: the “suppression of FSH-induced 17β-estradiol production” value with bovine granulosa cells (100 mUnits FSH) was found to be 1.5 fold; in the experiment on bovine granulosa cells (300 mUnits FSH), 3 fold. In the experiment with C57B1/6J females [1], the “increase in BMD” value is reported as “did not show an increase in BMD”. In addition, the “increase in trabecular bone mineral density (BMD) as compared to the placebo group” value was 40-50% with C57B1/6J females [2] (50 μg rCART in SX-999 slow release pellet s.c., after 60 days); 50-60% with C57B1/6J females [2] (100 μg (2×50 μg) rCART in SX-999 slow release pellets s.c., after 28 days); 50% with C57B1/6J females [2] (100 μg (2×50 μg) rCART in SX-999 slow release pellets s.c., after 28 days, listed as CART peptide); 80% in the experiment with C57B1/6J females [2] (100 μg (2×50 μg) rCART in SX-999 slow release pellets s.c., after 60 days).
